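These data come from cells grown in 96-well plates and exposed to compound for 48 hours at five concentrations. Abbreviation: GI50, concentration required for 50% inhibition of growth.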 Active and inactive are the calls of the source. Rule as the data show it: active = GI50 up to about 1.1 µM and inactive = higher.
Legend:
Assay in all cases: growth of human tumour cells (NCI), 48 h
IGROV-1 = test system: IGROV-1
OVCAR-3 = test system: OVCAR-3
786-0 = test system: 786-0
A498 = test system: A498
Malme-3M = test system: Malme-3M
HCC 2998 = test system: HCC 2998
HT-29 = test system: HT-29
LOX IMVI = test system: LOX IMVI
KM12 = test system: KM12
A549 = test system: A549
OVCAR-5 = test system: OVCAR-5
HOP-92 = test system: HOP-92
SK-MEL-2 = test system: SK-MEL-2
NCI-H522 = test system: NCI-H522
RPMI-8226 = test system: RPMI-8226
MOLT-4 = test system: MOLT-4
UACC-257 = test system: UACC-257

Measured: GI50

CCCN(CCCCC(NC(C)=O)C(=O)NCc1ccccc1)C(=O)NC (stereo not drawn)
inactive: IGROV-1 > 100 µM | OVCAR-3 > 100 µM | 786-0 > 100 µM | A498 > 100 µM | Malme-3M > 100 µM | HCC 2998 > 100 µM | HT-29 > 100 µM | LOX IMVI > 100 µM | KM12 > 100 µM | A549 > 100 µM | OVCAR-5 > 100 µM | HOP-92 > 100 µM | SK-MEL-2 > 100 µM | NCI-H522 > 100 µM | RPMI-8226 > 100 µM | MOLT-4 > 100 µM | UACC-257 > 100 µM

O=C1OC(=O)C2C3C=CC(C12)C1C2C=CC2C31 (stereo not drawn)
inactive: IGROV-1 > 100 µM | 786-0 > 100 µM | A498 > 100 µM | Malme-3M > 100 µM | HCC 2998 > 100 µM | HT-29 > 100 µM | LOX IMVI > 100 µM | KM12 > 100 µM | A549 > 100 µM | OVCAR-5 > 100 µM | HOP-92 > 100 µM | SK-MEL-2 > 100 µM | NCI-H522 > 100 µM | MOLT-4 > 100 µM | UACC-257 > 100 µM

Cc1nc(-c2cccnc2)sc1C(=O)/C=C/c1cccc([N+](=O)[O-])c1
inactive: IGROV-1 > 100 µM | OVCAR-3 > 100 µM | 786-0 > 100 µM | A498 > 100 µM | Malme-3M > 100 µM | HCC 2998 > 100 µM | HT-29 > 100 µM | LOX IMVI > 100 µM | KM12 > 100 µM | A549 > 100 µM | OVCAR-5 > 100 µM | HOP-92 > 100 µM | SK-MEL-2 > 100 µM | NCI-H522 > 100 µM | RPMI-8226 > 100 µM | MOLT-4 > 100 µM | UACC-257 > 100 µM

CCCC/C(C)=N/NC(N)=S
inactive: IGROV-1 > 100 µM | OVCAR-3 > 100 µM | 786-0 > 100 µM | A498 > 100 µM | Malme-3M > 100 µM | HCC 2998 > 100 µM | HT-29 > 100 µM | LOX IMVI > 100 µM | KM12 > 100 µM | A549 > 100 µM | OVCAR-5 > 100 µM | HOP-92 > 100 µM | SK-MEL-2 > 100 µM | NCI-H522 > 100 µM | RPMI-8226 > 100 µM | MOLT-4 > 100 µM | UACC-257 > 100 µM

COc1cc2ccc1-c1cc(ccc1O)CC1c3cc4c(cc3CCN1C)Oc1c(OC)cc3c(c1O4)C(C2)N(C)CC3 (stereo not drawn)
inactive: IGROV-1 2.17 µM | OVCAR-3 1.95 µM | 786-0 1.69 µM | A498 2.19 µM | Malme-3M 1.89 µM | HCC 2998 1.63 µM | HT-29 1.73 µM | LOX IMVI 1.99 µM | KM12 1.73 µM | A549 1.84 µM | OVCAR-5 3.4 µM | HOP-92 13.4 µM | SK-MEL-2 1.79 µM | NCI-H522 1.75 µM | RPMI-8226 1.91 µM | MOLT-4 1.83 µM | UACC-257 1.72 µM

C=C1C(OC(C)=O)CC(OC(C)=O)C2(C)C(OC(C)=O)C(OC(C)=O)C3=C(C)C(OC(=O)/C=C/c4ccccc4)CC(C(OC(C)=O)C12)C3(C)C (stereo not drawn)
inactive: IGROV-1 > 100 µM | 786-0 30.8 µM | A498 61.1 µM | Malme-3M 59.3 µM | HCC 2998 > 100 µM | HT-29 > 100 µM | LOX IMVI > 100 µM | KM12 > 100 µM | A549 > 100 µM | OVCAR-5 > 100 µM | HOP-92 21.8 µM | SK-MEL-2 55.6 µM | NCI-H522 68.1 µM | RPMI-8226 > 100 µM | MOLT-4 > 100 µM | UACC-257 > 100 µM

COc1ccc(/C(=N/O)C(c2ccc(OC)cc2)C2C(=O)Oc3ccccc32)cc1 (stereo not drawn)
inactive: IGROV-1 40 µM | 786-0 > 100 µM | A498 > 100 µM | Malme-3M 63.1 µM | HCC 2998 > 100 µM | HT-29 > 100 µM | LOX IMVI 79.6 µM | KM12 83.4 µM | A549 42 µM | OVCAR-5 12.7 µM | HOP-92 16.3 µM | SK-MEL-2 38.5 µM | NCI-H522 35.6 µM | RPMI-8226 > 100 µM | MOLT-4 > 100 µM | UACC-257 34.7 µM

N#CC(c1nc2ccccc2nc1Cl)S(=O)(=O)c1ccccc1 (stereo not drawn)
inactive: OVCAR-3 > 100 µM | 786-0 > 100 µM | A498 > 100 µM | Malme-3M 56.9 µM | HCC 2998 65.9 µM | LOX IMVI 43.5 µM | KM12 > 100 µM | A549 > 100 µM | OVCAR-5 > 100 µM | HOP-92 27.4 µM | SK-MEL-2 97.1 µM | NCI-H522 30.7 µM | RPMI-8226 37.2 µM | MOLT-4 32.4 µM | UACC-257 > 100 µM

NC1=NS(=O)(=O)Nc2nc(-c3ccc([N+](=O)[O-])o3)[nH]c21
inactive: IGROV-1 17.2 µM | OVCAR-3 24.7 µM | 786-0 15.6 µM | A498 76.6 µM | Malme-3M 16.7 µM | HCC 2998 16.8 µM | HT-29 19.4 µM | LOX IMVI 15.9 µM | KM12 18.6 µM | A549 > 100 µM | OVCAR-5 19.4 µM | HOP-92 14 µM | SK-MEL-2 16.5 µM | NCI-H522 17.4 µM | RPMI-8226 10.7 µM | MOLT-4 9.62 µM

O=C(N/N=C(\c1nc2ccc(Cl)cc2nc1O)C(O)c1ccccc1Cl)c1ccncc1 (stereo not drawn)
inactive: IGROV-1 > 100 µM | OVCAR-3 > 100 µM | 786-0 > 100 µM | A498 > 100 µM | Malme-3M > 100 µM | HCC 2998 > 100 µM | HT-29 > 100 µM | LOX IMVI > 100 µM | KM12 > 100 µM | A549 > 100 µM | OVCAR-5 > 100 µM | HOP-92 > 100 µM | SK-MEL-2 > 100 µM | NCI-H522 > 100 µM | MOLT-4 > 100 µM | UACC-257 > 100 µM

O=S1(=O)OCCOS(=O)(=O)C1Cl
inactive: IGROV-1 > 100 µM | OVCAR-3 > 100 µM | 786-0 > 100 µM | A498 > 100 µM | Malme-3M > 100 µM | HCC 2998 > 100 µM | HT-29 > 100 µM | KM12 > 100 µM | A549 > 100 µM | HOP-92 > 100 µM | SK-MEL-2 > 100 µM | NCI-H522 > 100 µM | RPMI-8226 > 100 µM | MOLT-4 > 100 µM | UACC-257 > 100 µM

Nc1n[n+](-c2ccccc2)no1
inactive: IGROV-1 24.4 µM | OVCAR-3 47.4 µM | 786-0 52.1 µM | A498 46 µM | Malme-3M 34.7 µM | HCC 2998 17.4 µM | HT-29 42.5 µM | LOX IMVI 42 µM | KM12 10.1 µM | A549 39.6 µM | OVCAR-5 40.7 µM | HOP-92 25.4 µM | NCI-H522 41.7 µM | RPMI-8226 26.6 µM | MOLT-4 13.3 µM | UACC-257 25.9 µM
